Source: publication PMC7985297 (Communications Biology, 2021)
Where “and” joins values, the source holds several entries; their conditions need not be identical. Equal entries are not always repeated.

Assays:
[1] = target: T1, recombinant human Pin1 protein (Homo sapiens, UniProt Q13526); test: Pin1 inhibition assay (fluorometric isomerase activity); assay type: biochemical; conditions: compounds 0–50 µM, 500 ng Pin1, Supplementary Fig. 2
T1 construct: purchased Abcam ab51230
Method: The effect of inhibitors on Pin1 isomerase activity was evaluated using a fluorometric Pin1 Assay Kit (AnaSpec, Fremont, California), according to the manufacturer’s protocol. […] Fluorescence intensity was measured with excitation wavelength at 490 nm and emission wavelength at 520 nm on an Infinite M1000 plate reader (Tecan, Männedorf, Switzerland) at 37 °C. Measurements were recorded every 5 min for up to 1 h.
Fluorescent polarization-based assay
the isomerase activity of Pin1. Each reaction contains 500 ng of
recombinant human Pin1 protein incubated with an inhibitor and a
fluorogenic substrate at 37°C. The uncatalyzed reaction represents
the intrinsic cis/trans isomerization of the substrate without Pin1
separate experiments with the correlation performed in duplicate
wells. RFU, relative fluorescent units.
(1 picture or pasted object on this page, not shown here)

YFP-AR fusion protein = target: T2, YFP-AR fusion protein (Homo sapiens, UniProt P10275); assay type: cell-based
T2 construct: expressed in transfected cells; host or cells: LNCaP
Method: Scores greater than 1 indicate nuclear localization. At least 50 cells were scored for each treatment.
AR translocation assays were performed by a modified protocol from Myung et al.[9]. Approximately 2.8 × 10^5 LNCaP cells were grown on coverslips in six-well plates and transiently transfected with 2 μg of an expression vector encoding a YFP-AR fusion protein. On the following day, cells were pre-treated with the indicated compounds for 1 h and stimulated with R1881 (1 nM) or a vehicle containing ethanol for 3 h. After incubating with compounds, cells were fixed with 4% paraformaldehyde, washed twice with PBS, and then counterstained with DAPI. Slides were examined on an Axiovert 200 Fluorescence Microscope (Zeiss, Oberkochen, Germany). The ratio of the YFP signal in the nucleus relative to the cytoplasm was quantified with ImageJ software. For each image, background fluorescence was measured and subtracted from experimental values. A total of at least 50 cells from nine images containing six or more cells per field were quantified to determine the nuclear to cytoplasmic YFP ratio for each treatment group.

[2] = target: T3, human AR NTD (AR1–558) fused to Gal4DBD (Gal4-ARN) (Homo sapiens, UniProt P10275); test: AR NTD transactivation assay (Gal4-ARN) in LNCaP cells; assay type: cell-based; conditions: EPI-002 25 μM, juglone 20 μM, ATRA 10 μM, 24 h
T3 construct: construct encoding the human AR1–558 of the NTD fused to a Gal4DBD (Gal4-ARN); expressed in transfected cells; host or cells: LNCaP
T3 sequence (P10275 1-558): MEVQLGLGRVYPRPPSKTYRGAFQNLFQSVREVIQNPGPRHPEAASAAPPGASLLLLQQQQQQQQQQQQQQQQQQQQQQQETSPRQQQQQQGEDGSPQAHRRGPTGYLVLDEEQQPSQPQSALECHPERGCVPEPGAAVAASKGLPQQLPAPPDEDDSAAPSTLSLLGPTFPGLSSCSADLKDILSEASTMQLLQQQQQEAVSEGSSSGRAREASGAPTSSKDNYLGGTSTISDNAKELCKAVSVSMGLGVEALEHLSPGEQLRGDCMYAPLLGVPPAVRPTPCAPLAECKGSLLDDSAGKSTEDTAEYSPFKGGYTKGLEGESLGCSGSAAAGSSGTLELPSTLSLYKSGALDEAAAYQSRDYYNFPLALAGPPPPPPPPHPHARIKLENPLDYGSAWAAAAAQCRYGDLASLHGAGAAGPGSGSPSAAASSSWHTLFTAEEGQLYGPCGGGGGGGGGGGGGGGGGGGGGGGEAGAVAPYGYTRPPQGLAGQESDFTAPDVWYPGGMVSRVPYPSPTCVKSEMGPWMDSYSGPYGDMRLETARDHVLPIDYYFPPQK
Source text: The remaining putative Pin1-binding sites are within the intrinsically disordered AR NTD that contains transcription activation units, Tau-1 and Tau-5, to mediate androgen-dependent and androgen-independent transactivation, respectively[5],[30]. The loss of AR-LBD shifts the location of transcriptional activity from Tau-1 with androgen, to Tau-5 in the absence of LBD[30].
Error bars show the mean ± s.e.m. *P < 0.05, **P < 0.01, ***P < 0.001; ns not significant.

PC-3 cells = test: BrdU incorporation assay, PC-3; assay type: cell-based, human; conditions: ATRA 10 µM; for BrdU incorporation, PC-3 (Fig. 4c): − R1881, ENZ 10 µM, EPI-002 25 µM, JUG 20 µM
Method: Cells were treated with the inhibitors and stimulated with 1 nM of R1881 (+) or vehicle (−) for 24 to 72 h. Each data point represents the average from an independent experiment where the error bars show the mean ± s.e.m.
BrdU incorporation was determined with the colorimetric BrdU ELISA kit (Roche Diagnostics), according to the manufacturer’s protocol. In brief, cells were seeded in 96-well plates (LNCaP, 5000/well; LN95, 8000/well; PC-3 and DU145, 4000/wells) in media with reduced serum (0.5–1%). On the following day, cells were pre-treated with test compounds for 1 h and then incubated with 0.1 nM of R1881. After the indicated incubation times, cells were labeled with 10 μM of BrdU for 2 h and then fixed for the assay.

LN95-D3 cells = test: Cell cycle analysis by flow cytometry, LN95-D3 subline; assay type: cell-based, human; conditions: LN95-D3, absence of androgen, 48 h
LNCaP cells = test: Senescence-associated β-galactosidase staining, LNCaP; assay type: cell-based, human; conditions: ATRA 10 µM, 3 days
Source text: Supplementary Figure 6. […] ( a)
Staining of senescence-associated β-galactosidase (SA β-gal) activity in cell lines treated with vehicle
Original magnification ×100.
percentage of β-gal positive cells as means ± s.e.m. from 3 independent experiments, where at least
1,000 cells were scored for each group. (c) Representative Western blot showing the indicated cell […]

LN95 cells = test: Senescence-associated β-galactosidase staining, LN95; conditions: 3 days
Method: β-galactosidase activity at suboptimal pH (6.0) was used as a marker to detect cellular senescence[42]. Cells were seeded in four-well chamber slides at a density of 8000-10,000 cells. […] Three days later, the media was removed and cells were fixed with 2% formaldehyde/0.2% glutaraldehyde for 10 min at room temperature, washed with PBS, and then incubated with freshly prepared β-Gal staining solution (Cell Signaling) titrated to pH 6.0. Staining was optimal after incubating with the β-Gal solution at 37 °C for 16–18 h. After staining, the slides were washed twice with PBS, once with absolute methanol, and then mounted with 50% glycerol/PBS. The percentage of β-galactosidase-positive cells were counted with ImageJ using the Cell Counter plugin. A total of nine images containing 100–300 cells were scored to determine the percentages of positive cells.

T2 sequence (P10275 whole entry, the tested form may be a part): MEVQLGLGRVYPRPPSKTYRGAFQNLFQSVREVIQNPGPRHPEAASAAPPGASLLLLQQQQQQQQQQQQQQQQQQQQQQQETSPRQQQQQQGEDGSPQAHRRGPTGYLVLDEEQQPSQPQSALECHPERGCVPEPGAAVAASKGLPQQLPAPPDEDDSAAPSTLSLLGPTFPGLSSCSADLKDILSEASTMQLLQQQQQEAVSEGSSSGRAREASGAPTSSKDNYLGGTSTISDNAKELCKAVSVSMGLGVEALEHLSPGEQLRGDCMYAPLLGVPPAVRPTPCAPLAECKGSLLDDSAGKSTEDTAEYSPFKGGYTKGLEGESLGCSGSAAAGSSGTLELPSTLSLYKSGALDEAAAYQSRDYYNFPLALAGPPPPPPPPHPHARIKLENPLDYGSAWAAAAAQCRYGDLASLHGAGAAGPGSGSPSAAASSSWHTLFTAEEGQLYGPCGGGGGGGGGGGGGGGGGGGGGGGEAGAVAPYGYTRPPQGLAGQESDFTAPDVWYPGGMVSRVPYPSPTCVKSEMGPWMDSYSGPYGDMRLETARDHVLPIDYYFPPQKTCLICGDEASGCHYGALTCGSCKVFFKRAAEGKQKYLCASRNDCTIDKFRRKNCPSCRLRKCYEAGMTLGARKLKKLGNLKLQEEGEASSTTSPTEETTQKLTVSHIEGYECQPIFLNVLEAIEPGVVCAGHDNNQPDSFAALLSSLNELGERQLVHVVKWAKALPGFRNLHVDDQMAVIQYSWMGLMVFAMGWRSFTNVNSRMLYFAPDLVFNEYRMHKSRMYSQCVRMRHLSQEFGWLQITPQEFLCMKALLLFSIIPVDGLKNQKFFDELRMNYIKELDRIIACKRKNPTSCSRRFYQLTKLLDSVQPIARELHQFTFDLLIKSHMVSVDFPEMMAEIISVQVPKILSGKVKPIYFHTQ
T1 sequence (Q13526 whole entry): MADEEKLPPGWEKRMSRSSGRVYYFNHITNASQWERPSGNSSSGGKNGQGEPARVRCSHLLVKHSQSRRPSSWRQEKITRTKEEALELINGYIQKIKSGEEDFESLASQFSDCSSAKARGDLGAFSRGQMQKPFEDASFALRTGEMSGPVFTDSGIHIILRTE

Row | SMILES | effect on isomerase activity of Pin1 [1] | YFP-AR localization, ratio of YFP intensity nucleus to cytosol (Fig. 2h), EtOH (YFP-AR fusion protein) | YFP-AR localization, ratio of YFP intensity nucleus to cytosol (Fig. 2h), R1881 (YFP-AR fusion protein) | effect on IL-6-induced transactivation of AR NTD (Gal4-ARN) ([2]; IL-6 50 ng/mL) | effect on forskolin-induced transactivation of AR NTD (Gal4-ARN) ([2]; forskolin 25 μM) | BrdU incorporation, PC-3 (Fig. 4c) (PC-3 cells; listed as JUG) | effect on proliferation of PC-3 cells (PC-3 cells) | BrdU incorporation, PC-3 (Fig. 4c) (PC-3 cells) | effect on cell cycle distribution (LN95-D3 cells) | effect on percentage of SA β-gal-positive cells (LNCaP cells) | effect on percentage of SA β-gal-positive cells (LN95 cells; LN95, ATRA 10 µM) | SA β-gal-positive cells (LN95 cells; LN95, ATRA 10 μM, EPI-002 25 μM)
1 | O=C1C=CC(=O)c2c(O)cccc21 [juglone] | inhibited the isomerase activity of Pin1 in a dose-dependent manner | 0.76 and 0.781 and 0.791 | 1.983 and 2.303 and 2.076 | only inhibited IL-6-induced transactivation | only inhibited IL-6-induced transactivation | 0.17 and 0.16 and 0.171 and 0.227 | – | – | – | – | – | –
2 | CC1=C(/C=C/C(C)=C/C=C/C(C)=C/C(=O)O)C(C)(C)CCC1 [ATRA, all-trans retinoic acid] | inhibited the isomerase activity of Pin1 in a dose-dependent manner | – | – | – | – | – | did not impact the proliferation of either PC-3 or DU145 cells | 1.204 and 0.885 and 0.987 and 1.277 | reduced the S phase and increased the G1 population | significantly increased the percentage of SA β-gal-positive cells for LNCaP and LN95 cells | significantly increased the percentage of SA β-gal-positive cells for LNCaP and LN95 cells | 37%
